# Data: patent EP1369114A1, “Use of tryptophan metabolites as pharmaceutical agents” (Terness, Peter, Priv. Doz. Dr., priority 2002, dated 2003)
# pIC50: −log10 of the molar value.
# Tested on: T cells stimulated by allogeneic DCs
# Assay: Allogeneic T-cell response: lymphocyte proliferation induced by allogeneic dendritic cells, 3[H]-thymidin incorporation
# Type: cell-based, human
# Details: 6 days
# From the text: DCs were generated from CD14-positive blood monocytes as previously described ("Schuler G. and N. Romani", 1997, Adv. Exp. Med. Biol. 417:7-13). Briefly, peripheral blood mononuclear cells of an HLA-typed healthy donor were separated by density gradient centrifugation and CD14-positive monocytes were isolated by adherence to culture dishes. Non-adherent cells were discarded. After culture of monocytes in the presence of human rGM-CSF (666 Units/ml) and rIL-4 (1000 Units/ml) for 7 days, rTNF-α (10 ng/ml) was added for an additional 2 days to induce maturation of DC. Characterization of DC phenotype was performed by flow cytometry using the following mouse monoclonal antibodies: anti-CD 14-FITC, anti-HLA-DR-FITC, anti-CD 1a-PE, anti-CD86-PE, and anti-CD83-PE (BD Biosciences Heidelberg, Germany). DCs were kept in liquid nitrogen until use.
# • (a) Allogeneic T-cell response. DCs were infected with recombinant IDO-adeno-GFP (DC-IDO-GFP), IDO-adeno (DC-IDO) or with control adenoviruses (DC-adeno) at a MOI (multiplicity of infection) up to 500 for 2 days. […] After 5 days, ^3[H]-thymidin was added for 12hrs and the number of counts (counts per minute = cpm) determined in a (3-counter (Inotech Biosystems, Lansing, MI). In order to verify whether IDO expression or adenovirus infection harm the DCs, 10^5 cells were infected with IDO-adeno-GFP, IDO-adenovirus, or adenovirus only at a stepwise decreasing MOI (500, 250, 125, ........ 3.9) and cell viability was measured in FACS following double staining with 7-AAD and anti-CD83 antibody-PE. The percentage of dead cells never exceeded 30% for any MOI following IDO-adeno-GFP- or IDO-adeno-infection and 40% following adenovirus(control)-infection. […] After 2 days, cell proliferation was assessed by measuring ^3[H]-thymidin incorporation (cpm) as described. • (c) Tryptophan metabolite titration curves. […] After 2 days, ^3[H] thymidin was added and the number of counts recorded. […] After another 2 days, ^3[H] thymidin was added and cpm determined. […]
compound,measurement,setting,value
Nc1ccccc1C(=O)CC(N)C(=O)O (centres unmarked) [kynurenine],inhibition of proliferation of T cells stimulated by allogeneic DCs (in words),,completely inhibit the proliferation of T cells
same,pIC50,"Homo sapiens, T-cell, 144 h, 3[H]-thymidin incorporation, read-out: 50% inhibition (I50) of proliferation of T cells stimulated by allogeneic DCs",3.80
